Assays:
yeast cells [1] = assay: "775" DeaD assay, single-concentration screen for countering nicotinamide lifespan shortening; assay type: cell-based, Saccharomyces cerevisiae; parameters: key: compounds that exhibited >26% inhibition are defined as active; Compounds that exhibited <=26% inhibition are defined as inactive; conditions: compounds 10 uM, 1.5 mM nicotinamide, 48 hours, OD615
Excerpt: Having established the suitability of the DeaD assay as a proxy for microdissection, the DeaD assay was used to screen a 132,796 compound library for the ability of compounds in the library to counter the lifespan-shortening effect of nicotinamide.
Specifically, as described in the AID 775 assay results (synonymously, the “775” assay results) on the “PubChem” website at pubchem.ncbi.nlm.nih.gov/assay/assay.cgi?aid=775, the contents of which are herein incorporated in their entirety by reference, the percent inhibition of nicotinamide lifespan shortening, i.e. percent reversal of nicotinamide effect on lifespan, was calculated using the optical density in control wells with cells treated with 1.5 mM nicotinamide as full lifespan shortening effect of nicotinamide (0% inhibition of nicotinamide), and wells with cells grown in medium without nicotinamide as an indicator of 100% inhibition. The appropriate compounds in the PubChem compound library (about 132,000 compounds selected from the total library of about 10 million compounds) were screened at 10 uM in the presence of 1.5 mM nicotinamide. For further details, see, e.g., the following references: Jarolim, S., Millen, J., Heeren, G., Laun, P., Goldfarb, D. S. and M. Breitenbach. (2004). A novel assay for replicative lifespan in Saccharomyces cerevisiae. FEMS Yeast Res. 5, 169-177; Bitterman, K. J., Anderson, R. M., Cohen, H. Y., Latorre-Esteves, M., and D. A. Sinclair. (2002). Inhibition of silencing and accelerated aging by nicotinamide, a putative negative regulator of yeast Sir2 and human SIRT1. J. Biol. Chem. 277, 45099-45107; Tsuchiya, M., Dang, N., Kerr, E. O., Hu, D., Steffen, K. K., Oakes, J. A., Kennedy, B. K. and M. Kaeberlein (2006) Sirtuin-independent effects of nicotinamide on lifespan extension from calorie restriction in yeast. Aging Cell. 5, 505-514.
Assays were conducted as follow. Cells were streaked out on a YPGal agar plate and grown for 48 hours at 30° C. Four colonies were selected, 50 mL of YPGal medium in a flask was inoculated and grown at 30° C. with shaking O/N. OD600 was measured. The OD should be <0.7 for the cells to be in log phase. The cells were centrifuged, washed once and resuspended in CSMM-D restrictive growth medium. OD600 was measured again. The culture was diluted to an OD600 of 0.002 in CSMM-D restrictive medium. The culture was pre-incubated in a flask with shaking at 30° C. for 4 hours. At the end of the pre-incubation, OD600 was measured for reference. Nicotinamide (negative control), medium alone (positive control) and compounds in the presence of nicotinamide were plated with DMSO at 10× concentration (final concentrations: nicotinamide 1.5 mM, compounds 10 uM, DMSO 0.25%) in 384-well plates: 5 uL/well. The yeast was added to the plates: 45 uL/well. Plates were incubated at 30 C in a humidified chamber. After 48 hours incubation, plates were shaken for 30 seconds and OD615 was read in an EnVision (PerkinElmer) multilabel plate reader. For these assays, YPGal medium was prepared as 10 grams yeast extract, 20 grams peptone, 900 mL water, autoclave at 121° C. for 15 minutes, add 100 mL sterile 20% (w/v) galactose. CSMM-D (Complete Synthetic Minimal Medium-Dextrose) (restrictive) medium was prepared as 6.7 grams yeast nitrogen base without amino acids, 2.0 grams Drop-out mix complete (DOC) (USBiological Cat. no. D9515), 100 mL 20% (w/v) dextrose, water to 1.0 L, then filter sterilize.
An activity threshold of >26% was calculated as greater than three standard deviations from the median compound inhibition. […] Because of the inherent error in all high-throughput screens including the fallacy of over-interpreting single dose data, a tiered scoring system was adopted for this Example, in which compounds were scored on a scale of 0-40 based on activity, with a scaled activity threshold of 11. Using this tiered scoring system, the compounds were ranked, with 906 of these compounds defined as “active” using this tiered scoring system. […]

DeaD strain BB579 = assay: "809" DeaD assay, dose-response screen (EC50) in presence of nicotinamide; assay type: cell-based, Saccharomyces cerevisiae; parameters: key: An activity threshold of EC50<=10 uM was set and compounds that met this criterion are defined as active; Compounds that exhibited an EC50>10 uM are defined as inactive; conditions: compounds 0.078-10 uM, 1.5 mM nicotinamide, 48 hours
Procedure: As already discussed, Example 2 provides data using the “775” DeaD assay to determine compounds that counter the lifespan-reducing effects of 1.5 mM nicotinamide, with this Example identifying about 900 “active” compounds. Example 2 used only a single compound concentration of 10 uM; in the current Example, the top 500 of these “active” compounds were again screened using the DeaD assay, but now at 8 concentrations ranging from 0.078 to 10 uM, again in the presence of 1.5 mM nicotinamide, resulting in the data provided in Table 1. This more extensive data allowed for the determination of the half maximal effective concentration (EC50). See the “AID 809” assay (the “809” assay) results on the PubChem website at pubchem.ncbi.nlm.nih.gov/assay/assay.cgi?aid=809.
Thus, in this Example compounds were screened in an 8-point 2-fold dilution series ranging from 0.078 to 10 uM in the presence of 1.5 mM nicotinamide. The percent activation of lifespan, i.e. percent reversal of nicotinamide effect on lifespan, was calculated using the optical density in control wells with cells treated with 1.5 mM nicotinamide as full lifespan shortening effect of nicotinamide (0% activation), and wells with cells grown in medium without nicotinamide as an indicator of 100% activation. From the % activation values of the different compound concentrations, the half maximal effective concentration (EC50) was calculated using IDBS ActivityBase software and XLfit equation 205 for a four parameter logistic fit; the maximum and minimum values were fixed at 100% and 0%.
Assays were conducted as follow. Cells (DeaD strain BB579) were streaked out on a YPGal agar plate and grown for 48 hours at 30° C. Four colonies were selected, 50 mL of YPGal medium in a flask was inoculated and grown at 30 C with shaking O/N. OD600 was measured. The OD should be <0.7 for the cells to be in log phase. […] OD600 was measured again. […] At the end of the pre-incubation, OD600 was measured for reference. […] After 48 hours incubation, plates were shaken for 30 seconds and OD615 was read in an EnVision (PerkinElmer) multilabel plate reader. […]

yeast cells [2] = assay: Full DeaD assay lifespan timecourse (FIG. 3); assay type: cell-based, Saccharomyces cerevisiae; conditions: 2.5, 5.0, 10 uM, nonpermissive conditions
Procedure: FIG. 3 provides a plot showing DeaD assays for compound SID 855620 (nalidixic acid) in the presence and absence of nicotinamide. The nalidixic acid was incubated with growing cells under nonpermissive conditions at concentrations of 2.5, 5.0, and 10 uM (micromolar) in the presence and absence of 1.5 mM nicotinamide. Control experiments for growth in the presence and absence of nicotinamide without the drug are included. The last three entries showing the line labeling are all results obtained with 1.5 mM nicotinamide and, respectively, 2.5, 5 or 10 uM nalidixic acid. The data lines shown in this figure correspond to (topmost to bottommost as they appear at the extreme right side of the data lines): 2.5, 10, or 5 uM nalidixic acid (no nicotinamide); blank cells (labeled “no NIC”); 5 or 10 uM nalidixic acid plus 1.5 mM nicotinamide (in both cases); 10 uM nalidixic acid (no nicotinamide); and, blank cells with 1.5 mM nicotinamide (labeled “1.5 mM NIC”).
In order to validate the results of the “809” experiment of Example 3, timecourses for the effect of the top 70 compounds identified in Example 3 may be performed using the DeaD assay for, e.g., a 140 hour interval for each of these compounds. […]

yeast cells [3] = assay: Standard microdissection replicative lifespan assay (FIG. 4); assay type: cell-based, Saccharomyces cerevisiae
Procedure: FIG. 4 provides standard microdissection lifespans for nicotinamide in the presence of nalidixic acid and 5 mM nicotinamide. Three experiments that included three concentrations of nalidixic acid all increased mean lifespans (shown in parentheses) and maximum lifespans. In this Figure, “#864” refers to nalidixic acid, e.g., the second entry in the legend refers to 54 uM nalidixic acid, the third entry refers to 107 uM nalidixic acid, etc. The number presented in parentheses in the figure legend refers to the mean lifespan of the population in each experiment presented in this Figure, e.g., the control population (5 mM nicotinamide only) has a mean lifespan of 14.2 generations, etc.
In order to verify the data of Example 4 for nalidixic acid, microdissection experiments were performed using this compound to counter the effect of nicotinamide, with the results of these experiments shown in FIG. 4.

DeaD strain = assay: DeaD assay validation with nicotinamide (FIG. 2); assay type: cell-based, Saccharomyces cerevisiae; conditions: 0.5, 0.75, 1 mM NIC
Procedure: Panel A: Under growth in glucose (nonpermissive conditions) DeaD lifespans are reduced in a dose-dependent fashion by increasing concentrations of nicotinamide. […] The lines shown in panel A correspond to (top to bottom) 0, 0.5, 0.75, and 1 mM NIC. The 3 lines visible in panel B correspond to (topmost to bottommost), 0.5, 0.75, or 1 mM NIC; the 0 mM NIC line is not visible.
The DeaD assay was developed as a high throughput proxy for conventional microdissection assays used to determine yeast replicative ageing. In order to verify the ability of this assay to produce results corresponding to conventional microdissection assay results, the data of FIG. 1 were obtained using either the DeaD assay (panel A) or via microdissection (panel B).

C. elegans = conditions: Pnc1 and SIR2-ortholog dependent; Van der Horst et al. 2007; cited from earlier work
[4] = 5 mM nicotinamide, three concentrations of nalidixic acid

Row | Structure (SMILES) | activity in the 775 assay (percent inhibition of nicotinamide lifespan shortening) (yeast cells [1]) | activity in the 809 assay (EC50) (DeaD strain BB579) | other results
1 | Cc1cc(C2C(=O)C(C(=O)c3ccc(Cl)cc3)C(=O)CC2(C)C)on1 (stereo not shown) [SID 842694] | inactive |  | 
2 | CC1(C)CC(=O)C(C(=O)CCCCC(=O)C2C(=O)CC(C)(C)CC2=O)C(=O)C1 [SID 4245034] | inactive |  | 
3 | CCCC(=O)C1C(=O)CC(C)(C)C(c2cc(C)no2)C1=O (stereo not shown) [SID 7972147] | active |  | 
4 | COC(=O)CCCCC(=O)C1C(=O)CC(C)(C)C(C(=O)OC)C1=O (stereo not shown) [SID 7972920] | inactive |  | 
5 | CCOC(=O)C1C(=O)C(C(C)=O)C(=O)CC1CC(C)SCC (stereo not shown) [SID 14724551] | active | active | 
6 | CCCC(=O)C1C(=O)CC(CC(C)SCC)CC1=O (stereo not shown) [SID 14732512] | active | active | 
7 | CCOc1ccc(CC(=O)C2C(=O)CC(C)(C)CC2=O)cc1OCC [SID 14732962] | inactive |  | 
8 | CC1(C)CC(=O)C(C(=O)Cc2ccccc2[N+](=O)[O-])C(=O)C1 [SID 17511642] | active | active | 
9 | CCn1cc(C(=O)O)c(=O)c2ccc(C)nc21 [nalidixic acid] |  |  | DeaD lifespan (yeast cells [2]; in the absence of nicotinamide): extends DeaD lifespan; DeaD lifespan (yeast cells [2]; in the presence of 1.5 mM nicotinamide): extends DeaD lifespan; maximum lifespan (yeast cells [3]; [4]): increased; mean lifespan (yeast cells [3]; [4]): increased
10 | NC(=O)c1cccnc1 [nicotinamide] |  |  | mean lifespan (yeast cells [3]; control population, 5 mM nicotinamide only): 14.2 generations; growth under permissive conditions (DeaD strain; growth in galactose (permissive conditions)): without altering growth; DeaD lifespan (DeaD strain; growth in glucose (nonpermissive conditions)): reduces the lifespan of the DeaD strain in a dose-dependent fashion; C. elegans lifespan (C. elegans): reduce C. elegans lifespan

From patent US8642660B2, “Method for altering the lifespan of eukaryotic organisms” (The University of Rochester, priority 2007, dated 2014)
